Experimental data reported in patent publication US9663460B2, “Sulfur derivatives as chemokine receptor modulators” (ALLERGAN, INC., priority 2010, dated 2017).

These compounds were tested against CCR2 (Homo sapiens (Human), UniProt P41597) (assay: Calcium activity assayed on the FLIPR Tetra in HEK-Gqi5 cells stably expressing CCR2). Details: FLIPR Tetra calcium assay.
Assay type: cell-based
Experimental: HEK-Gqi5 cells stably expressing CCR2 were cultured in (DMEM high glucose, 10% FBS, 1% PSA, 400 μg/ml geneticin and 50 μg/ml hygromycin. Appropriate positive control chemokines (MCP-1, MIP1A or RANTES) was used as the positive control agonist for screening compound-induced calcium activity assayed on the FLIPR^Tetra. The drug plates were prepared in 384-well microplates using the EP3 and the MuItiPROBE robotic liquid handling systems. Compounds were synthesized and tested for CCR^2 activity.

Sequence of CCR2 (P41597 whole entry, species assumed): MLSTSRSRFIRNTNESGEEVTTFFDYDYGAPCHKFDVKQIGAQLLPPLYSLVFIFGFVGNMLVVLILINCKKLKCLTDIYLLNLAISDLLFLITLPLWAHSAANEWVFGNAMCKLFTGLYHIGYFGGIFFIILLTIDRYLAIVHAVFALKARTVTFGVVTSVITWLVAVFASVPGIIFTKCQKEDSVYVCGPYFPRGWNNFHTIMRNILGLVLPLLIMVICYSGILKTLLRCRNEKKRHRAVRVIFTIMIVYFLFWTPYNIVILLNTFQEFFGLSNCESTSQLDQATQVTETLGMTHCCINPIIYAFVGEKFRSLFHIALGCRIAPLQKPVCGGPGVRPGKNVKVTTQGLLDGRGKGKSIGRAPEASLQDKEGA

Compound | CCR2 % ANTAGONISM [%] | IC50 [nM]
Nc1cc(CS(=O)(=O)c2ccc(Cl)cc2NS(=O)(=O)c2cc3ccccc3o2)cc[n+]1[O-] [N-(2-{[(2-amino-1-oxidopyridin-4-yl)methyl]sulfonyl}-5-chlorophenyl)-1-benzofuran-2-sulfonamide] | 54 | 9960
Cc1ccc(S(=O)(=O)Nc2cc(Cl)ccc2S(C)(=O)=O)o1 [N-[5-chloro-2-(methylsulfonyl)phenyl]-5-methylfuran-2-sulfonamide] | 90 | 990
CN(C)C(=O)CCS(=O)(=O)c1ccc(Cl)cc1NS(=O)(=O)c1ccc(Cl)c(C(F)(F)F)c1 [3-{[4-chloro-2-({[4-chloro-3-(trifluoromethyl)phenyl]sulfonyl}amino)phenyl]sulfonyl}-N,N-dimethylpropanamide] | 93 | 217
CS(=O)(=O)c1ccc(Cl)cc1NS(=O)(=O)c1cccc(Cl)c1F [3-chloro-N-[5-chloro-2-(methylsulfonyl)phenyl]-2-fluorobenzenesulfonamide] | 101 | 116
CC(C)(C)OC(=O)Nc1cccc(C[S+]([O-])c2ccc(Cl)cc2NS(=O)(=O)c2cc3ccccc3o2)n1 (stereo not drawn) [tert-butyl {6-[({2-[(1-benzofuran-2-ylsulfonyl)amino]-4-chlorophenyl}sulfinyl)methyl]pyridin-2-yl}carbamate] | 82 | 527
Nc1cccc(CSc2ccc(F)cc2NS(=O)(=O)c2cc3ccccc3o2)c1 [N-{2-[(3-aminobenzyl)thio]-5-fluorophenyl}-1-benzofuran-2-sulfonamide] | 97 | 55
Nc1ccccc1CSc1ccc(Cl)cc1NS(=O)(=O)c1cc2ccccc2o1 [N-{2-[(2-aminobenzyl)thio]-5-chlorophenyl}-1-benzofuran-2-sulfonamide] | 91 | 100
Nc1ccc(CS(=O)(=O)c2ccc(Cl)cc2NS(=O)(=O)c2cc3ccccc3o2)cc1 [N-{2-[(4-aminobenzyl)sulfonyl]-5-chlorophenyl}-1-benzofuran-2-sulfonamide] | 104 | 90
O=S(=O)(Cc1cc[nH]n1)c1ccc(Cl)cc1NS(=O)(=O)c1cc2ccccc2o1 [N-{5-chloro-2-[(1H-pyrazol-3-ylmethyl)sulfonyl]phenyl}-1-benzofuran-2-sulfonamide] | 102 | 367
C[S+]([O-])c1ccc(Cl)cc1NS(=O)(=O)c1cc2cc(Cl)ccc2o1 (stereo not drawn) [5-chloro-N-[5-chloro-2-(methylsulfinyl)phenyl]-1-benzofuran-2-sulfonamide] | 92 | 655
CN(C)C(=O)CC[S+]([O-])c1ccc(Cl)cc1NS(=O)(=O)c1ccc(Cl)cc1F (stereo not drawn) [3-[(4-chloro-2-{[(4-chloro-2-fluorophenyl)sulfonyl]amino}phenyl)sulfinyl]-N,N-dimethylpropanamide] | 99 | 221
NCCCS(=O)(=O)c1ccc(Cl)cc1NS(=O)(=O)c1cc2ccccc2o1 [N-{2-[(3-aminopropyl)sulfonyl]-5-chlorophenyl}-1-benzofuran-2-sulfonamide] | 82 | –
CS(=O)(=O)c1ccc(Cl)cc1NS(=O)(=O)c1ccc(I)cc1 [N-[5-chloro-2-(methylsulfonyl)phenyl]-4-iodobenzenesulfonamide] | 92 | 1070
O=S(=O)(Nc1cc(Cl)ccc1[S+]([O-])Cc1ccccn1)c1cc2ccccc2o1 (stereo not drawn) [N-{5-chloro-2-[(pyridin-2-ylmethyl)sulfinyl]phenyl}-1-benzofuran-2-sulfonamide] | 100 | 29
O=S(=O)(Nc1cc(Cl)ccc1[S+]([O-])Cc1ccccn1)c1ccc(Cl)c(C(F)(F)F)c1 (stereo not drawn) [4-chloro-N-{5-chloro-2-[(pyridin-2-ylmethyl)sulfinyl]phenyl}-3-(trifluoromethyl)benzenesulfonamide] | 83 | 92
O=S(=O)(CCc1cn[nH]c1)c1ccc(Cl)cc1NS(=O)(=O)c1cc2ccccc2o1 [N-(5-chloro-2-{[2-(1H-pyrazol-4-yl)ethyl]sulfonyl}phenyl)-1-benzofuran-2-sulfonamide] | 93 | 570
O=S(=O)(Nc1cc(Cl)ccc1SCc1ncc[nH]1)c1cc2ccccc2o1 [N-{5-chloro-2-[(1H-imidazol-2-ylmethyl)thio]phenyl}-1-benzofuran-2-sulfonamide] | 93 | 60

Compound | CCR2 % ANTAGONISM [%] | IC50 [nM]
O=S(=O)(Nc1cc(Cl)ccc1[S+]([O-])CCc1ccccn1)c1cc2ccccc2o1 (stereo not drawn) [N-{5-chloro-2-[(2-pyridin-2-ylethyl)sulfinyl]phenyl}-1-benzofuran-2-sulfonamide] | 86 | 153
O=[N+]([O-])c1ccccc1C[S+]([O-])c1ccc(Cl)cc1NS(=O)(=O)c1cc2ccccc2o1 (stereo not drawn) [N-{5-chloro-2-[(2-nitrobenzyl)sulfinyl]phenyl}-1-benzofuran-2-sulfonamide] | 95 | 75
O=S(=O)(Nc1cc(Cl)ccc1[S+]([O-])Cc1ccc[n+]([O-])c1)c1cc2ccccc2o1 (stereo not drawn) [N-(5-chloro-2-{[(1-oxidopyridin-3-yl)methyl]sulfinyl}phenyl)-1-benzofuran-2-sulfonamide] | 101 | 646
Nc1cccc(C[S+]([O-])c2ccc(Cl)cc2NS(=O)(=O)c2ccc(F)cc2F)c1 (stereo not drawn) [N-{2-[(3-aminobenzyl)sulfinyl]-5-chlorophenyl}-2,4-difluorobenzenesulfonamide] | 99 | 443
CSc1ccc(Cl)cc1NS(=O)(=O)c1ccc(Br)cc1 [4-bromo-N-[5-chloro-2-(methylthio)phenyl]benzenesulfonamide] | 76 | 1330
O=S(=O)(Nc1cc(Cl)ccc1[S+]([O-])Cc1cccc(O)c1)c1cc2ccccc2o1 (stereo not drawn) [N-{5-chloro-2-[(3-hydroxybenzyl)sulfinyl]phenyl}-1-benzofuran-2-sulfonamide] | 103 | 112
Nc1cccc(CSc2ccc(Cl)cc2NS(=O)(=O)c2ccc(Cl)cc2F)c1 [N-{2-[(3-aminobenzyl)thio]-5-chlorophenyl}-4-chloro-2-fluorobenzenesulfonamide] | 88 | 2820
Nc1cccc(C[S+]([O-])c2ccc(Cl)cc2NS(=O)(=O)c2ccccc2)c1 (stereo not drawn) [N-{2-[(3-aminobenzyl)sulfinyl]-5-chlorophenyl}benzenesulfonamide] | 62 | 2560
CNC(=O)C[S+]([O-])c1ccc(Cl)cc1NS(=O)(=O)c1ccc(Cl)c(C(F)(F)F)c1 (stereo not drawn) [2-{[4-chloro-2-({[4-chloro-3-(trifluoromethyl)phenyl]sulfonyl}amino)phenyl]sulfinyl}-N-methylacetamide] | 91 | 329
O=S(=O)(Nc1cc(Cl)ccc1[S+]([O-])Cc1cccnc1)c1cc2ccccc2o1 (stereo not drawn) [N-{5-chloro-2-[(pyridin-3-ylmethyl)sulfinyl]phenyl}-1-benzofuran-2-sulfonamide] | 100 | 76
O=S(=O)(Nc1cc(Cl)ccc1[S+]([O-])C1CCC(O)C1)c1ccc(Cl)c(C(F)(F)F)c1 (stereo not drawn) [4-chloro-N-{5-chloro-2-[(3-hydroxycyclopentyl)sulfinyl]phenyl}-3-(trifluoromethyl)benzenesulfonamide] | 101 | 107
C[S+]([O-])c1ccc(Cl)cc1NS(=O)(=O)c1cc2ccccc2o1 (stereo not drawn) [N-[5-chloro-2-(methylsulfinyl)phenyl]-1-benzofuran-2-sulfonamide] | 98 | 11
CSc1ccc(Cl)cc1NS(=O)(=O)c1cc2ccccc2o1 [N-[5-chloro-2-(methylthio)phenyl]-1-benzofuran-2-sulfonamide] | 99 | 26
Nc1cccc(CS(=O)(=O)c2ccc(F)cc2NS(=O)(=O)c2cc3ccccc3o2)c1 [N-{2-[(3-aminobenzyl)sulfonyl]-5-fluorophenyl}-1-benzofuran-2-sulfonamide] | 90 | 22
CC(=O)Nc1nc(CS(=O)(=O)c2ccc(Cl)cc2NS(=O)(=O)c2cc3ccccc3o2)cs1 [Compound 237, N-{-4-[({2-[(1-benzofuran-2-ylsulfonyl)amino]-4-chlorophenyl}sulfonyl)methyl]-1,3-thiazol-2-yl}acetamide] | 87 | –
O=[N+]([O-])c1cc(C[S+]([O-])c2ccc(Cl)cc2NS(=O)(=O)c2cc3ccccc3o2)n[nH]1 (stereo not drawn) [N-(5-chloro-2-{[(5-nitro-1H-pyrazol-3-yl)methyl]sulfinyl}phenyl)-1-benzofuran-2-sulfonamide] | 94 | 752
COc1ccc(SCc2cccc(N)c2)c(NS(=O)(=O)c2cc3ccccc3o2)c1 [N-{2-[(3-aminobenzyl)thio]-5-methoxyphenyl}-1-benzofuran-2-sulfonamide] | 100 | 1400
